In patent US12428377B2, “Sodium-hydrogen exchanger 3 inhibitor compounds” (Eli Lilly and Company, priority 2019, dated 2025):
pIC50: −log10 of the molar value. Values joined by “and” are separate entries in the source; they are usually repeats but may differ in a detail not shown here. Equal entries are not always repeated.

Assays:
NPT2b = molecular target: T1, NPT2b (Homo sapiens, UniProt O95436); assay: NPT2b inhibition (selectivity)
T1 sequence (O95436 1-690): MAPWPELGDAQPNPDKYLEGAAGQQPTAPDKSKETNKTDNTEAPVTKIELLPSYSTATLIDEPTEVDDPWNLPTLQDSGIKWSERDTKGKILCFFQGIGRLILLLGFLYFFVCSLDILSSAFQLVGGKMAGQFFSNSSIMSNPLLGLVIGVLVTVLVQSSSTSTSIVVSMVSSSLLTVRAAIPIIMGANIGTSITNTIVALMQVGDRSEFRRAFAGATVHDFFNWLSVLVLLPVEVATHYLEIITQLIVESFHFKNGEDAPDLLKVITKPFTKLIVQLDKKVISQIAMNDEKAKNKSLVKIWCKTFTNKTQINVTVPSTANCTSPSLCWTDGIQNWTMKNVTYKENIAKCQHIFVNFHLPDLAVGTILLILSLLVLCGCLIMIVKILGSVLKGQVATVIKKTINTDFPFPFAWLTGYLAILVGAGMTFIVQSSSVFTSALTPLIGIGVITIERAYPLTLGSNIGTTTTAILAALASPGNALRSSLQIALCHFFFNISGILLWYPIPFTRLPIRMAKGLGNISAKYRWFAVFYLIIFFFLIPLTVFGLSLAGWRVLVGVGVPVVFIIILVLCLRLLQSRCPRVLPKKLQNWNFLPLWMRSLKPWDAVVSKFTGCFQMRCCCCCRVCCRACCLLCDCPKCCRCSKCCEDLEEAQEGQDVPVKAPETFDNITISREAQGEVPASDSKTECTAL

male Sprague Dawley rats [1] = assay: Radiolabeled phosphate absorption in rats, Studies 1-3 (plasma radioactivity); assay type: in vivo, rat; settings: Study 2, rats; for Absorption (vs. vehicle control): mean ± SEM
Protocol: Effect of Example 2 in Combination with an NPT2b Inhibitor (Compound A) on Phosphate Absorption in Rats
NPT2b inhibitor dosing solutions: Compound A and poly-1-vinylpyrrolidone-co-vinyl acetate (PVP-VA, Sigma-Aldrich) are weighed into a bottle at a ratio of 30% Compound A and 70% PVP-VA by weight. A clear yellow solution is prepared by diluting the mixture in MeOH followed by the addition of 2 mol NaOH per mol Compound A using 5 N NaOH. The solution is spray dried by a stream of hot nitrogen and the solid dispersion powder is collected and then further dried in a vacuum oven. Doses for the sprayed dried solid dispersion (SDD) are expressed as active pharmaceutical ingredient (API) throughout.
To make the Compound A dosing solution, an appropriate amount of Compound A SDD is weighed in a vial and dissolved in water (10 mL/kg dosing volume). […] The subsequent solutions for lower doses are prepared by serial dilutions with water. PVP-VA at 7 mg/mL is used as a vehicle control.
NHE3 inhibitor dosing solutions: To make the Example 2 dosing solution, an appropriate amount of the compound is weighed in a vial and dissolved in 1% HEC (10 mL/kg dosing volume). […] The subsequent solutions for lower doses are prepared by serial dilutions with HEC.
To make the radiolabeled phosphate dosing solution, a 16.25 mM Na2HPO4, 0.9% saline, pH 7.4 solution is prepared and filtered using a sterile, 0.22 μm, polyethersulfone, Millex-GP Syringe Filter Unit (EMD Millipore). Radioactive phosphate (H3^33PO4, Perkin Elmer) is added at about 2.5 μCi per mL of the solution and filtered again.
Three separate studies are performed. In these studies, male Sprague Dawley rats, are randomized into groups with approximately equal mean body weights. Following an overnight fast, all the animals are dosed at 10 mL/kg with either vehicle, varying doses of Compound A (Study 1), varying doses of Example 2 (Study 2) or 1.2 mg/kg Compound A and varying doses of Example 2 (Study 3). 15 min later, radiolabeled phosphate is orally dosed in a 2 mL volume. 15 min later, blood is collected and plasma is prepared. Radioactivity (dpm) in 50 μL plasma is measured by scintillation counting and is used to calculate phosphate absorption. The results are normalized with the vehicle controls representing 100% absorption. The curves are fitted with nonlinear regression with variable slope using GraphPad Prism 6 to calculate the ED50 and Emax given in Table 7. […] No curve fit was performed for Compound A alone in Study 1.

male Sprague Dawley rats [2] = assay: Intestinal phosphate retention: percent radiolabeled dose recovered in gastrointestinal tract; assay type: in vivo, rat; settings: Example 2 0.4 mg/kg, 4 h after radiolabeled phosphate
Protocol: The purpose of this study is to investigate in rats the effect of Example 2, Compound A, and an Example 2/Compound A combination on phosphate absorption 15 min after dosing the compounds and the phosphate retained in the intestine 4.25 h after dosing the compounds. The latter is a measure of the oral phosphate load which is absorbed over an extended period.
Two vehicles are used in this study: 1) 1% HEC and 2) 0.46% poly-1-vinylpyrrolidone-co-vinyl acetate in water (PVP-VA vehicle). The vehicle control group in this study receives a 1:1 combination of the two vehicles.
The Example 2, Compound A and phosphate dosing solutions are prepared similarly as described above, except the doses are 0.4 mg/kg for Example 2 and 10 mg/kg for Compound A and they are prepared at a concentration where they would be dosed in a 5 mL/kg volume. The Example 2 and Compound A alone groups are mixed 1:1 with the vehicle of the other compound, while the Compound A and Example 2 are mixed 1:1 prior to dosing. The final dosing volume is 10 mL/kg in all cases.
4 h after the radiolabeled phosphate solution is dosed, stomach, small intestine, large intestine, and feces are collected, weighed and digested with 1N NaOH overnight at 37° C. Radioactivity in each fraction is measured by scintillation counting.
The percent dose recovered in gastrointestinal tract is defined as radioactivity recovered in stomach, small intestine, large intestine and feces compared to the amount dosed. Data is presented as mean±SEM with animal numbers equal to 8 for the groups. Statistical significance is determined by ANOVA with a Dunnett's comparison to the Example 2/Compound A combination using JMP 12.1.
The percent dose recovered in gastrointestinal tract data is further analyzed by a two-way ANOVA in JMP 12.1 to test for additivity of the effects of Example 2 and Compound A on inhibiting phosphate absorption. […] That is, the inhibitory effect of the combination is greater than the sum of the individual compound effects.

In the case of `CN1Cc2c(Cl)cc(Cl)cc2[C@H](c2cccc(S(=O)(=O)NCCOCCOCCN/C(=N\C(N)=O)NCCCCN/C(=N/C(N)=O)NCCOCCOCCNS(=O)(=O)c3cccc([C@@H]4CN(C)Cc5c(Cl)cc(Cl)cc54)c3)c2)C1.Cl.Cl` [Example 2, [[4-[[N′-Carbamoyl-N-[2-[2-[2-[[3-[(4S)-6,8-dichloro-2-methyl-3,4-dihydro-1H-isoquinolin-4-yl]phenyl]sulfonylamino]ethoxy]ethoxy]ethyl]carbamimidoyl]amino]butylamino]-[2-[2-[2-[[3-[(4S)-6,8-dichloro-2-methyl-3,4-dihydro-1H-isoquinolin-4-yl]phenyl]sulfonylamino]ethoxy]ethoxy]ethylamino]methylene]urea dihydrochloride], the pIC50 (NPT2b) was 4.23, the ED50 (male Sprague Dawley rats [1]; Rattus norvegicus, Example 2 alone) was 0.041 mg/kg and the “Absorption (vs. vehicle control)” value (male Sprague Dawley rats [1]; Example 2 0.001 mg/kg) was 97.16 ± 20.76%. For the same compound, the “Absorption (vs. vehicle control)” value (male Sprague Dawley rats [1]; Example 2 0.003 mg/kg) was 100.81 ± 20.74%, the “Absorption (vs. vehicle control)” value (male Sprague Dawley rats [1]; Example 2 0.01 mg/kg) was 75.15 ± 15.52% and the “Absorption (vs. vehicle control)” value (male Sprague Dawley rats [1]; Example 2 0.03 mg/kg) was 83.17 ± 17.99%. For the same compound, the “Absorption (vs. vehicle control)” value (male Sprague Dawley rats [1]; Example 2 0.1 mg/kg) was 57.29 ± 11.20%, the “Absorption (vs. vehicle control)” value (male Sprague Dawley rats [1]; Example 2 0.3 mg/kg) was 71.09 ± 13.98% and the “Absorption (vs. vehicle control)” value (male Sprague Dawley rats [1]; Example 2 1 mg/kg) was 44.29 ± 9.09%. For the same compound, the “Absorption (vs. vehicle control)” value (male Sprague Dawley rats [1]; Example 2 3 mg/kg) was 60.04 ± 12.00%, the “Absorption (vs. vehicle control)” value (male Sprague Dawley rats [1]; Example 2 10 mg/kg) was 63.47 ± 8.39% and the “% Inhibition at the highest dose (phosphate absorption)” value (male Sprague Dawley rats [1]; Example 2 highest dose tested (10 mg/kg), dihydrochloride) was 37%. The “Percent Dose Recovered, Feces” value (male Sprague Dawley rats [2]) was under 0.1%, the “Percent Dose Recovered, Large Intestine” value (male Sprague Dawley rats [2]; mean ± SEM) was 18.16 ± 2.58% and the “Percent Dose Recovered, Small Intestine” value (male Sprague Dawley rats [2]; mean ± SEM) was 8.64 ± 0.32%. The “Percent Dose Recovered, Stomach” value (male Sprague Dawley rats [2]; mean ± SEM) was 3.9 ± 0.49% and the “Percent Dose Recovered, Total” value (male Sprague Dawley rats [2]; mean ± SEM, dihydrochloride, 0.4 mg/kg) was 31% and 30.7 ± 2.43%.
